Columns and labels:
Type in all cases: cell-based, human
[1] = tested on: cyclin D1; experiment: Western blot of Cyclin D1 in SW480 whole cell lysates; conditions: SW480 cells, 25 μM, beginning at 4 hours, increasing at 24 hours
Procedure: FIG. 5. COMPOUND 1 inhibits the expression of cyclin D1. • A. Cyclin D1 levels are decreased with COMPOUND 1 treatment. Western blot analysis was performed on 25 μg of SW480 whole cell lysates treated for 4, 8, or 24 hours with either 25 μM of COMPOUND 1 or control (0.5% DMSO). Immunoblotting was performed using anti-Cyclin D1 antibodies (Santa Cruz Biotechnology Inc.). • B. In vivo occupancy of cyclin D1 and c-myc promoters by CBP and p300. […] ChIP assays were performed on promoter of c-myc from SW480 cells which was treated for 8 hours with COMPOUND 1 (25 μM) or control (0.5% DMSO). CBP (AC-26, a generous gift from Dr. David Livingston, Harvard University, Boston, Mass.) or p300 (C-20, Santa Cruz Biotechnology Inc.) specific antibodies were used to evaluate the promoter occupancy by CBP or p300 in presence of COMPOUND 1 or control (DMSO) treatment.
Immune complexes, from above, were separated on SDS-PAGE followed by transfer to immobilon-P membranes (PVDF) from (Millipore, Bedford, Mass.). […] Immunoblots were analyzed using an ECL detection kit (Amersham Pharmacia Biotech).
The β-actin gene was used to normalize the data. The ΔCycle of Threshold (CT) values were determined by subtracting the average values of each set from the corresponding average values obtained for the β-actin gene. […] Cyclin D1 protein levels in cells were also evaluated. […]

[2] = tested on: HCT116 cells; experiment: FACS cell cycle analysis (propidium iodide), HCT116 cells; conditions: 25 μM, 24 hours
Procedure: FIG. 6. • A. COMPOUND 1 arrests cells in G1. FACS analysis was performed on SW480 (lower panel) and HCT116 (upper panel) cells treated for 24 hours with either COMPOUND 1 (25 μM) (right) or control (0.5% DMSO (left). 5.5×10^6 cells were fixed and stained with propidium iodide (PI). G0/G1, S, and G2/M are indicated by arrows. • B. COMPOUND 1 selectively activates caspases in colon carcinoma cell lines. SW480 and HCT116 (left graph) cells (10^5) along with the normal colonocytes, CCD18Co (right graph) were treated with either control (0.5% DMSO) or COMPOUND 1 (25 μM). 24 hours post treatment, cells were lysed and the caspase-3/7 enzymatic activities were measured. Relative fluorescence units (RFU) were calculated by subtracting the unit values of the blank (control, without cells) from the treated samples (COMPOUND 1 or control) and plotted.
For FACS analysis, approx. 5×10^6 cells from PNRI-treated or vehicle-treated were fixed with 70% chilled ethanol and stored at −20° C. for at least 30 minutes. […] 10,000 stained cells for each sample were acquired using Beckman Coulter EPICS XL-MCL Flow Cytometry and the percentage of cells in different phase of the cell cycle was determined by Expo32 ADC software (Coulter Corporation, Miami, Fla., 33196). […]

[3] = tested on: nuclear β-catenin in HCT116 cells; experiment: β-catenin immunofluorescence localization in HCT116 cells; conditions: 25 μM, 24 hours, to cytoplasmic membrane
Procedure: FIG. 4. COMPOUND 1 decreases nuclear β-catenin • A. β-catenin immunofluorescence microscopy. Log phase SW480 (left) and HCT116 (right) cells were fixed and stained with either anti-β-catenin red (upper panel, A) or anti-CBP (upper panel, B) green. The center panel represents the superimposed β-catenin and CBP in SW480 (left) and HCT116 (right) cells. […] 25 μg of total protein from the cell extracts of SW480 cells with or without 24 hr treatment of COMPOUND1 was used for detection of cytosolic and nuclear β-catenin.
Immunofluorescence was used to examine the localization of CBP and β-catenin in SW480 and HCT116 cells treated with COMPOUND 1 (25 μM) or control (0.5% DMSO). Cells at log phase were seeded and after 24 hours, the cells were treated with COMPOUND 1 or control. 24 hours post treatment, cells were fixed. The coverslips were incubated with antibodies raised against CBP (A-22) (Santa Cruz Biotechnology) and β-catenin (Transduction Laboratories), respectively. The slides were examined using a Nikon PCM 2000 Laser Scanning Confocal Microscope after the secondary antibodies conjugated to either FITC or TRITC (Jackson ImmunoResearch, Westgrove, Pa.) were applied.

In the case of `O=C1C(Cc2ccc(O)cc2)N2C(=O)CCN(C(=O)NCc3ccccc3)C2CN1Cc1cccc2ccccc12` (stereo not drawn) [COMPOUND 1], the “Level of Cyclin D1 protein” value [1] is reported as “clear reduction”, the “Cell cycle distribution (DNA content by FACS)” value [2] is reported as “increased accumulation at G1/S-phase” and the “Subcellular distribution of β-catenin” value [3] is reported as “redistribution of β-catenin”.

Reference: patent US7531320B2, “Modulation of β-catenin/TCF-activated transcription” (priority 2003, dated 2009)
